Data reported in patent US5153201A, “Condensed thiazole compounds and use as pharmaceuticals” (Takeda Chemical Industries, Ltd., priority 1990, dated 1992).

Tested on: excitatory behavior induced by spinal intrathecal injection of FeCl2 in mice
Assay: Effects of drugs on the excitatory behavior induced by spinal intrathecal injection of FeCl2 in mice
Assay type: in vivo
Details: for Percent inhibition (%): inhibition of mean behavioral score versus saline, 100 mg/kg orally 30 min. prior to FeCl2 injection, mice; for Average score, administration of compound (100 mg/kg): male Slc:ICP mice (5 weeks), 100 mg/kg orally 30 min. prior to FeCl2 (5 μl of 50 mM, intrathecal), observed 15 min. to 1 hr., score 0 normal to 5 death
Description: Effects of drugs on the excitatory behavior induced by spinal intrathecal injection of FeCl2 in mice Male Slc:ICP mice (5 weeks) were used. Each group consisted of 10 mice. 5 μl of 50 mM FeCl2 in saline was injected into spinal subarchnoid space between the 1st sacral and the 6th lumbar segment, the behavioral responses were observed from 15 min. to 1 hr. after the intrathecal injection of FeCl2 and scored as follows. |Score Behavioral responses |0: normal (no abnormal behavior) |1: vigorously biting lower abdomen or lower | extremities |2: a) extremely biting lower body with rolling | b) hyperreactivity and […] to external stimuli | c) tremor | at least one of above three behavioral changes were | observed |3: clonic convulsion |4: tonic convulsion or paralysis of lower extremities. |5: death The test compounds (100 mg/kg) were orally administered 30 min. prior to FeCl2 injection.

Row | Compound | Percent inhibition (%) | Average score, administration of compound (100 mg/kg)
1 | Cl.Cl.Cn1cnc(C=Cc2nc3c(s2)NCCC3)c1 [Example 5, 2-{2-(1-Methylimidazole-4-yl)ethenyl}-4,5,6,7-tetrahydrothiazolo[5,4-b]pyridine dihydrochloride] | 91.3% | 0.4
2 | Cc1ccc(-c2nc3c(s2)NCCC3)cc1N [Example 2, 2-(3-Amino-4-methylphenyl)-4,5,6,7-tetrahydrothiazolo[5,4-b]pyridine] | 85.1% | 0.7
3 | CCn1cc(C=Cc2nc3c(s2)NCCC3)nc1-c1ccccc1 [Example 6, 2-{2-(1-Ethyl-2-phenylimidazole-4-yl)ethenyl}-4,5,6,7-tetrahydrothiazolo[5,4-b]pyridine] | 97.9% | 0.1
4 | Cc1ccc(-c2nc3c(s2)NCCC3)cc1N.Cl.Cl [Example 3, 2-(3-Amino-4-methylphenyl)-4,5,6,7-tetrahydrothiazolo[5,4-b]pyridine dihydrochloride] | 80.9% | 0.9
5 | COc1cccc(C=Cc2nc3c(s2)NCCC3)c1OC [Example 1, 2-(2,3-Dimethoxystyryl)-4,5,6,7-tetrahydrothiazolo[5,4-b]pyridine] | 82.6% | 0.8
